In US10435405B2, “Pyrazolopyridine compounds and uses thereof” (Incyte Corporation, priority 2016, dated 2019):

Molecular target: HPK1 (Homo sapiens (Human), UniProt Q92918)
Assay: HPK1 Kinase Binding Assay
In short: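 This is a LanthaScreen tracer-binding format: a tracer 222/Eu-anti-GST antibody mix (18 nM and 4 nM solution) is added to active HPK1 (4 nM solution) with 3-fold, 11-point compound dilutions. Incubation is 1 h at 25 °C in HEPES pH 7.5 buffer before reading, and Ki is determined.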

Chain of HPK1 (Q92918 1-346): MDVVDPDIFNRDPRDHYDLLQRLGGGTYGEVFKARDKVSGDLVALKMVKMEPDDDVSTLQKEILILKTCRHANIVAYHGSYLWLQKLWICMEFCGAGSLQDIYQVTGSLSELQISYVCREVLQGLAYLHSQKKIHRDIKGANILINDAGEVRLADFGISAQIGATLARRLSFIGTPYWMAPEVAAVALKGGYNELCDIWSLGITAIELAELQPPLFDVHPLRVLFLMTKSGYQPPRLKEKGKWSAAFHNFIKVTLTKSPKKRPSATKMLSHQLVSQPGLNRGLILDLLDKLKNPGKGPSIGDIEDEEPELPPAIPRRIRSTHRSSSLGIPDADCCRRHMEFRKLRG

SMILES	Ki [nM]
CNCc1cccc(-c2cc3c(-c4cnn(C)c4)n[nH]c3cn2)c1C [Example 86, N-Methyl-1-(2-methyl-3-(3-(1-methyl-1H-pyrazol-4-yl)-1H-pyrazolo[3,4-c]pyridin-5-yl)phenyl)methanamine]	≤ 100
CNCc1ccc(C)c(-c2cc3c(-c4cnn(C)c4)n[nH]c3cn2)c1 [Example 87, N-Methyl-1-(4-methyl-3-(3-(1-methyl-1H-pyrazol-4-yl)-1H-pyrazolo[3,4-c]pyridin-5-yl)phenyl)methanamine]	≤ 100
CNCc1cccc(-c2cc3c(-c4cnn(C)c4)n[nH]c3cn2)c1C(F)(F)F [Example 88, N-Methyl-1-(3-(3-(1-methyl-1H-pyrazol-4-yl)-1H-pyrazolo[3,4-c]pyridin-5-yl)-2-(trifluoromethyl)phenyl)methanamine]	≤ 100
Cn1cc(-c2n[nH]c3cnc(-c4cccc(CN5CCC5)c4C(F)(F)F)cc23)cn1 [Example 89, 5-(3-(Azetidin-1-ylmethyl)-2-(trifluoromethyl)phenyl)-3-(1-methyl-1H-pyrazol-4-yl)-1H-pyrazolo[3,4-c]pyridine]	≤ 100
Cn1cc(-c2n[nH]c3cnc(-c4cccc(CNC5CCOCC5)c4C(F)(F)F)cc23)cn1 [Example 90, N-(3-(3-(1-Methyl-1H-pyrazol-4-yl)-1H-pyrazolo[3,4-c]pyridin-5-yl)-2-(trifluoromethyl)benzyl)tetrahydro-2H-pyran-4-amine]	≤ 100
CC(C)NCc1cccc(-c2cc3c(-c4cnn(C)c4)n[nH]c3cn2)c1C(F)(F)F [Example 91, N-(3-(3-(1-Methyl-1H-pyrazol-4-yl)-1H-pyrazolo[3,4-c]pyridin-5-yl)-2-(trifluoromethyl)benzyl)propan-2-amine]	≤ 100
CNCc1ccc(F)c(-c2cc3c(-c4cnn(C)c4)n[nH]c3cn2)c1C [Example 92, 1-(4-Fluoro-2-methyl-3-(3-(1-methyl-1H-pyrazol-4-yl)-1H-pyrazolo[3,4-c]pyridin-5-yl)phenyl)-N-methylmethanamine]	≤ 100
Cc1c(CNC(C)C)ccc(F)c1-c1cc2c(-c3cnn(C)c3)n[nH]c2cn1 [Example 93, N-(4-Fluoro-2-methyl-3-(3-(1-methyl-1H-pyrazol-4-yl)-1H-pyrazolo[3,4-c]pyridin-5-yl)benzyl)propan-2-amine]	≤ 100
Cc1c(CN2CCC2)ccc(F)c1-c1cc2c(-c3cnn(C)c3)n[nH]c2cn1 [Example 94, 5-(3-(Azetidin-1-ylmethyl)-6-fluoro-2-methylphenyl)-3-(1-methyl-1H-pyrazol-4-yl)-1H-pyrazolo[3,4-c]pyridine]	≤ 100
CC(C)NC1CC(c2cc(F)c(-c3cc4c(-c5cnn(C)c5)n[nH]c4cn3)c(F)c2)C1 (centres unmarked) [Example 95, 3-(3,5-Difluoro-4-(3-(1-methyl-1H-pyrazol-4-yl)-1H-pyrazolo[3,4-c]pyridin-5-yl)phenyl)-N-isopropylcyclobutanamine]	≤ 100
CNCCc1cc(F)c(-c2cc3c(-c4cnn(C)c4)n[nH]c3cn2)c(F)c1 [Example 96, 2-(3,5-Difluoro-4-(3-(1-methyl-1H-pyrazol-4-yl)-1H-pyrazolo[3,4-c]pyridin-5-yl)phenyl)-N-methylethanamine]	≤ 100
CNCCc1ccc(F)c(-c2cc3c(-c4cnn(C)c4)n[nH]c3cn2)c1F [Example 97, 2-(2,4-Difluoro-3-(3-(1-methyl-1H-pyrazol-4-yl)-1H-pyrazolo[3,4-c]pyridin-5-yl)phenyl)-N-methylethanamine]	≤ 100
Cn1cc(-c2n[nH]c3cnc(-c4c(F)ccc(CCNC5CCOCC5)c4F)cc23)cn1 [Example 98, N-(2,4-Difluoro-3-(3-(1-methyl-1H-pyrazol-4-yl)-1H-pyrazolo[3,4-c]pyridin-5-yl)phenethyl)tetrahydro-2H-pyran-4-amine]	≤ 100
CC(C)N1CC(NCCc2cc(F)c(-c3cc4c(-c5cnn(C)c5)n[nH]c4cn3)c(F)c2)C1 [Example 99, N-(3,5-Difluoro-4-(3-(1-methyl-1H-pyrazol-4-yl)-1H-pyrazolo[3,4-c]pyridin-5-yl)phenethyl)-1-isopropylazetidin-3-amine]	≤ 100
CNC(=O)c1ccc(-c2n[nH]c3cnc(-c4c(F)cccc4OC)cc23)cc1F [Example 100, 2-Fluoro-4-(5-(2-fluoro-6-methoxyphenyl)-1H-pyrazolo[3,4-c]pyridin-3-yl)-N-methylbenzamide]	≤ 100
CNC(=O)c1ccc(-c2n[nH]c3cnc(-c4c(F)cccc4OC)cc23)cn1 [Example 101, 5-(5-(2-Fluoro-6-methoxyphenyl)-1H-pyrazolo[3,4-c]pyridin-3-yl)-N-methylpicolinamide]	≤ 100
CNC(=O)c1ccc(-c2n[nH]c3cnc(-c4c(F)cccc4OC)cc23)cc1OC [Example 102, 4-(5-(2-Fluoro-6-methoxyphenyl)-1H-pyrazolo[3,4-c]pyridin-3-yl)-2-methoxy-N-methylbenzamide]	≤ 100
CNC(=O)c1ccc(-c2n[nH]c3cnc(-c4c(F)cccc4OC)cc23)cc1C [Example 103, 4-(5-(2-Fluoro-6-methoxyphenyl)-1H-pyrazolo[3,4-c]pyridin-3-yl)-N,2-dimethylbenzamide]	≤ 100

SMILES	Ki [nM]
COc1cccc(F)c1-c1cc2c(-n3cnc(C(=O)NC(C)C)c3)n[nH]c2cn1 [Example 104, 1-(5-(2-Fluoro-6-methoxyphenyl)-1H-pyrazolo[3,4-c]pyridin-3-yl)-N-isopropyl-1H-imidazole-4-carboxamide]	≤ 100
CNC(=O)c1cn(-c2n[nH]c3cnc(-c4c(F)cccc4OC)cc23)cn1 [Example 105, 1-(5-(2-Fluoro-6-methoxyphenyl)-1H-pyrazolo[3,4-c]pyridin-3-yl)-N-methyl-1H-imidazole-4-carboxamide]	≤ 100
Cn1cc(-c2n[nH]c3cnc(-c4c(F)cc(OCC5CCN5)cc4F)cc23)cn1 (centres unmarked) [Example 106, 5-(4-(Azetidin-2-ylmethoxy)-2,6-difluorophenyl)-3-(1-methyl-1H-pyrazol-4-yl)-1H-pyrazolo[3,4-c]pyridine]	≤ 100
Cn1cc(-c2n[nH]c3cnc(-c4c(F)cc(OC5CCOCC5)cc4F)cc23)cn1 [Example 107, 5-(2,6-Difluoro-4-(tetrahydro-2H-pyran-4-yloxy)phenyl)-3-(1-methyl-1H-pyrazol-4-yl)-1H-pyrazolo[3,4-c]pyridine]	≤ 100
Cn1cc(-c2n[nH]c3cnc(-c4c(F)cc(OCc5ccncc5)cc4F)cc23)cn1 [Example 108, 5-(2,6-Difluoro-4-(pyridin-4-ylmethoxy)phenyl)-3-(1-methyl-1H-pyrazol-4-yl)-1H-pyrazolo[3,4-c]pyridine]	≤ 100
CN(C)C(=O)Oc1cc(F)c(-c2cc3c(-c4cnn(C)c4)n[nH]c3cn2)c(F)c1 [Example 109, 3,5-Difluoro-4-(3-(1-methyl-1H-pyrazol-4-yl)-1H-pyrazolo[3,4-c]pyridin-5-yl)phenyl dimethylcarbamate]	≤ 100
Cn1cc(-c2n[nH]c3cnc(-c4c(F)cc(OC(=O)N5CCOCC5)cc4F)cc23)cn1 [Example 110, 3,5-Difluoro-4-(3-(1-methyl-1H-pyrazol-4-yl)-1H-pyrazolo[3,4-c]pyridin-5-yl)phenyl morpholine-4-carboxylate]	≤ 100
CNCc1ccc(-c2cc3c(-c4cnn(C)c4)n[nH]c3cn2)c(C)c1 [Example 111, N-Methyl-1-(3-methyl-4-(3-(1-methyl-1H-pyrazol-4-yl)-1H-pyrazolo[3,4-c]pyridin-5-yl)phenyl)methanamine]	≤ 100
CNCc1ccc(-c2cc3c(-c4cnn(C)c4)n[nH]c3cn2)c(C(F)(F)F)c1 [Example 112, N-Methyl-1-(4-(3-(1-methyl-1H-pyrazol-4-yl)-1H-pyrazolo[3,4-c]pyridin-5-yl)-3-(trifluoromethyl)phenyl)methanamine]	≤ 100
CNCc1cc(C)c(-c2cc3c(-c4ccc(N5CCC(O)C5)nc4)n[nH]c3cn2)c(F)c1 (centres unmarked) [Example 113, 1-(5-(5-(2-Fluoro-6-methyl-4-((methylamino)methyl)phenyl)-1H-pyrazolo[3,4-c]pyridin-3-yl)pyridin-2-yl)pyrrolidin-3-ol]	≤ 100
CNCc1cc(C)c(-c2cc3c(-c4ccc(N5CCCC(OC)C5)nc4)n[nH]c3cn2)c(F)c1 (centres unmarked) [Example 114, 1-(3-Fluoro-4-(3-(6-(3-methoxypiperidin-1-yl)pyridin-3-yl)-1H-pyrazolo[3,4-c]pyridin-5-yl)-5-methylphenyl)-N-methylmethanamine]	≤ 100
COc1cccc(F)c1-c1cc2c(-c3cccc(C4CCN(C)CC4)n3)n[nH]c2cn1 [Example 115, 5-(2-Fluoro-6-methoxyphenyl)-3-(6-(1-methylpiperidin-4-yl)pyridin-2-yl)-1H-pyrazolo[3,4-c]pyridine]	≤ 100
COc1cccc(F)c1-c1cc2c(/C=C/c3ccc(Br)cc3)n[nH]c2cn1 [Example 116, 3-(4-Bromostyryl)-5-(2-fluoro-6-methoxyphenyl)-1H-pyrazolo[3,4-c]pyridine]	≤ 100
CNCc1cc(C)c(-c2cc3c(-c4cccc(N5CCOCC5)n4)n[nH]c3cn2)c(F)c1 [Example 117, 1-(3-Fluoro-5-methyl-4-(3-(6-morpholinopyridin-2-yl)-1H-pyrazolo[3,4-c]pyridin-5-yl)phenyl)-N-methylmethanamine]	≤ 100
CCN(C)c1cccc(-c2n[nH]c3cnc(-c4c(C)cc(CNC)cc4F)cc23)n1 [Example 118, N-Ethyl-6-(5-(2-fluoro-6-methyl-4-((methylamino)methyl)phenyl)-1H-pyrazolo[3,4-c]pyridin-3-yl)-N-methylpyridin-2-amine]	≤ 100
CNCc1cc(F)c(-c2cc3c(-c4ccc(N5CCN(C)CC5)nc4)n[nH]c3cn2)c(C(F)(F)F)c1 [Example 119, 1-(3-Fluoro-4-(3-(6-(4-methylpiperazin-1-yl)pyridin-3-yl)-1H-pyrazolo[3,4-c]pyridin-5-yl)-5-(trifluoromethyl)phenyl)-N-methylmethanamine]	≤ 100
CNCc1cc(F)c(-c2cc3c(-c4ccc(C5CC5)nc4)n[nH]c3cn2)c(C(F)(F)F)c1 [Example 120, 1-(4-(3-(6-Cyclopropylpyridin-3-yl)-1H-pyrazolo[3,4-c]pyridin-5-yl)-3-fluoro-5-(trifluoromethyl)phenyl)-N-methylmethanamine]	≤ 100
